Data: US20200306213A1, “COMPOUNDS FOR USE IN THE TREATMENT OR PREVENTION OF LOWE SYNDROME OR DENT DISEASE AND METHODS THEREFOR” (Université de Montréal, priority 2017, published 2020)

Assays:
[1] = tested on: OCRL1-depleted HeLa cells; experiment: Abscission assay (time-lapse) in OCRL1-depleted HeLa cells; type: cell-based, human; conditions: OCRL1 siRNA-depleted HeLa cells, 25 μM, 60 hours time-lapse recording, compared to DMSO alone
Experimental: (§1) Further tests were carried out using human cellular models for the Lowe syndrome.
Human HeLa epithelial cells were grown in DMEM medium (Gibco BRL) supplemented with 10% fetal bovine serum, 100 U/ml penicillin/streptomycin and 2 mM glutamine at 37° C. HeLa cells were depleted in OCRL1 by transfecting control siRNAs (5′-CGUACGCGGAAUACUUCGA-3′) or OCRL1 RNAi (5′-GAAAGGAUCAGUGUCGAUA-3′) specific siRNAs for 72 h before imaging using HiPerFect reagents (Qiagen).
(§2) Cell divisions were recorded by time-lapse microscopy using a Nikon Eclipse Ti Inverted Microscope. The curves represent the cumulative distribution of the abscission times in the indicated cell populations (see FIG. 5).

[2] = tested on: dOCRL dsRNA treated Drosophila S2 cells; experiment: Cytokinesis / multinucleation assay in dOCRL dsRNA treated Drosophila S2 cells; type: cell-based; conditions: dOCRL depleted S2 cells, 50 μM, 24 hours
Experimental: (§3) Drosophila S2 cells were grown in Schneider's Drosophila medium complemented with FBS, Penicillin and Streptomycin (Invitrogen). […] Cells were fixed and labelled for F-Actin (red) and DNA (blue). Images are shown in FIGS. 1(a) to 1(c) in which stars mark multinucleated cells. The histogram of FIG. 2 represents the percentage of multinucleated cells quantified following the indicated treatments. Each P-values were calculated against dOCRL dsRNA treated cells.

[3] = tested on: wildtype zebrafish embryos; experiment: Pronephric uptake of Alexa 488-10 kDa dextran in wildtype zebrafish embryos; type: in vivo; conditions: wildtype embryos at 72 hpf, 5 μM in the water, assessed 2 hours after tracer injection
Experimental: (§4) Finally, to test whether activation of PLC rescues phenotypes induced by loss of OCRL1 in an in vivo context, a previously established Ocrl−/− mutant zebrafish model for Lowe syndrome was used (Ramirez I. B. et al., 2012, Hum. Mol. Genet., 21, 1744-59, Oltrabella F., et al., 2015, PLoS Genetics, 11(4):e1005058). Wild type fish were of AB background.
(§5) Lysine-fixable 10 kDa dextran labelled with Alexa 488 (Molecular Probes) was prepared in PBS at 2 μg/μl final concentration. Zebrafish embryos at 72 hpf (hours post fertilisation) were treated for 60 minutes with DMSO control (0.005% DMSO), 5 μM m-3M3FBS or 5 μM o-3M3FBS by addition to the water. Embryos were then anaesthetised with 0.2 mg/ml MS222 (Sigma) in chorion water, and the tracer Alexa 488-10 kDa dextran (green) was injected into the common cardinal vein using a glass micropipette PLI-90 Pico-Injector (Harvard Apparatus). Embryos were returned to the respective drug treatments and incubated at 29° C. Pronephric accumulation was assessed 2 hours after injection on whole mount embryos using a fluorescent dissecting stereomicroscope (Leica MZ10F). Statistical analysis was performed using the Pearson's chi-squared test with Prism software (Prism Software Corporation).

[4] = tested on: renal epithelial cells from a Lowe syndrome patient; experiment: Abscission assay (time-lapse) in renal epithelial cells from a Lowe syndrome patient; type: cell-based, human; conditions: 25 μM, 60 hours time-lapse recording
Experimental: as §1
In this experiment, normal renal epithelial cells from a donor not mutated in OCRL1 and renal epithelial cells from a Lowe syndrome patient were grown in DMEM/F12 (Gibco BRL) supplemented with 10% fetal bovine serum, ITS supplemented, 4 pg/mL triiodothyronine, 36 ng/mL dexamethasone, 10 ng/ml EGF, 100 U/mL penicillin/streptomycin and 2 mM glutamine at 33° C.
as §2, with “3). […] Comparatively, abscission delay observed in Lowe patient cells was not corrected by treatment with o-3M3FBS.” for “5).”

[5] = tested on: normal renal epithelial cells from a donor not mutated in OCRL1; experiment: Abscission assay (time-lapse) in normal renal epithelial cells; type: cell-based, human; conditions: 25 μM, 60 hours time-lapse recording
Experimental: Further tests were carried out using human cellular models for the Lowe syndrome. […] In this experiment, normal renal epithelial cells from a donor not mutated in OCRL1 and renal epithelial cells from a Lowe syndrome patient were grown in DMEM/F12 (Gibco BRL) supplemented with 10% fetal bovine serum, ITS supplemented, 4 pg/mL triiodothyronine, 36 ng/mL dexamethasone, 10 ng/ml EGF, 100 U/mL penicillin/streptomycin and 2 mM glutamine at 33° C. […] Cell divisions were recorded by time-lapse microscopy using a Nikon Eclipse Ti Inverted Microscope. The curves represent the cumulative distribution of the abscission times in the indicated cell populations (see FIG. 3). […] Comparatively, abscission delay observed in Lowe patient cells was not corrected by treatment with o-3M3FBS.

[6] = tested on: control Drosophila S2 cells; experiment: Cytokinesis / multinucleation assay in control Drosophila S2 cells; type: cell-based; conditions: 50 μM, 24 hours
Experimental: as §3

[7] = tested on: Ocrl−/− mutant zebrafish embryos; experiment: Pronephric uptake of Alexa 488-10 kDa dextran in Ocrl−/− mutant zebrafish embryos; type: in vivo; conditions: OCRL1 mutant embryos at 72 hpf, 5 μM in the water, assessed 2 hours after tracer injection
Experimental: as §4, §5

SMILES | correction of abscission delay [1] | effect on cytokinesis failure / multi-nucleation rate [2] | effect on renal (pronephric) uptake of tracer [3] | correction of abscission delay [4] | effect on timing of abscission [5] | effect on cytokinesis (multinucleated cells) [6] | rescue of endocytosis in the renal tubule (pronephric uptake of tracer) [7]
Cc1cc(C)c(S(=O)(=O)Nc2cccc(C(F)(F)F)c2)c(C)c1 [m-3M3FBS, 2,4,6-trimethyl-N-(m-3-trifluoromethylphenyl) benzene sulfonamide] | showed correction of the abscission delay | prevented cytokinesis failure | no effect upon renal uptake | fully corrected | not affected | did not perturb cytokinesis | efficiently rescued endocytosis
Cc1cc(C)c(S(=O)(=O)Nc2ccccc2C(F)(F)F)c(C)c1 [o-3M3FBS, reference compound] | no significant effect on abscission | did not significantly modify the multi-nucleation rate | no effect | not corrected |  |  | no effect
